This assay deals with small human bronchi. Description: Repeated LTD4 control contractions of tissue sample in the perfusion chamber (long time stability). Conditions: LTD4 10 nM, 30 min, alternating with LTD4 free solution 60 min; repeated cycles n=8; after 14 h of measurements; FIG. 2. The protocol:
One embodiment of the present invention is illustrated in FIG. 1, wherein the chamber 1 is made out of titanium and has a volume of typically 5 mL. The chamber is mounted on a mounting piece 2 of silver, which contains means for controlling the temperature of the chamber. An inlet 3 and outlet 4 allow a continuous flow of a physiological solution through the chamber ensuring a constant concentration of the substances in the chamber. Tissue sample is placed on hooks 8 and the hooks are placed in the chamber in a suitable position so that the tissue sample is completely immersed in the liquid flowing through the chamber. One of the hooks is attached to a force transducer 9 and the other is a fixed hook. Test substances are injected in the liquid prior to the liquid entering the chamber. As the tissue sample reacts to the substances present in the liquid the force transducer register the tension in the tissue sample due to contraction or relaxation. The force transducer is preferably AME801, which is commercially available from Infineon technologies.
A description of embodiments of the device according to the invention is shown in the previous section. In FIG. 2 control contractions in small human bronchi exposed to repeated (n=8) cycles with LTD4 (10 nM, 30 min) and LTD4 free solution (60 min) for 14 hours, are shown. The error bars show a low variance and good repeatability. […]

Consider `CCCCC/C=C\C\C=C/C=C/C=C/[C@@H](SC[C@H](N)C(=O)NCC(=O)O)[C@@H](O)CCCC(=O)O` [LTD4], for which the “original contraction of the bronchi remaining” value was approximately 80%.

(Values after US20100167329A1, “DEVICE FOR DRUG SCREENING” (Respiratorius AB, priority 2006, published 2010).)
